Experimental data taken from PubChem BioAssay (NCI).
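How tested: cells in 96-well plates exposed to compound for 48 hours at five concentrations. TGI denotes the concentration required for complete inhibition of growth.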

tested on: TK-10 renal; assay: NCI tumour cell line growth inhibition, 48 h

| SMILES | TGI [µM] |
| --- | --- |
| FC(F)(F)c1ccc2c(c1)nc(-c1ccccc1)n2CC1CCCN2CCCCC12 (stereo not given) | 41.8 |
| CC(C)(C)OC(=O)NCC(=O)NC1CC=CCC1NC(=O)CNC(=O)OC(C)(C)C (stereo not given) | > 100 |
| CC[C@@]1(O)C(=O)OCc2c1cc1n(c2=O)Cc2c-1nc1ccccc1c2/C=N/NC(=O)C[N+](C)(C)C | > 100 |
| CN(C)/C=N/S(=O)(=O)c1nn2c(C=O)c(-c3ccccc3)nc2s1 | > 77.1 |

tested on: MALME-3M melanoma; assay: NCI tumour cell line growth inhibition, 48 h

| SMILES | TGI [µM] |
| --- | --- |
| CCCCCCCCCCCCCCCCOCC(Cl)CP(=O)(O)OP(=O)(O)OCC1OC(n2cnc3c(N)ncnc32)C(O)C1O (stereo not given) | > 100 |
| FC(F)(F)c1ccc2c(c1)nc(-c1ccccc1)n2CC1CCCN2CCCCC12 (stereo not given) | 27.2 |
| CC(C)(C)OC(=O)NCC(=O)NC1CC=CCC1NC(=O)CNC(=O)OC(C)(C)C (stereo not given) | > 100 |
| CC[C@@]1(O)C(=O)OCc2c1cc1n(c2=O)Cc2c-1nc1ccccc1c2/C=N/NC(=O)C[N+](C)(C)C | > 100 |
| CN(C)/C=N/S(=O)(=O)c1nn2c(C=O)c(-c3ccccc3)nc2s1 | 35.6 |

tested on: COLO 205 colon; assay: NCI tumour cell line growth inhibition, 48 h

| SMILES | TGI [µM] |
| --- | --- |
| CCCCCCCCCCCCCCCCOCC(Cl)CP(=O)(O)OP(=O)(O)OCC1OC(n2cnc3c(N)ncnc32)C(O)C1O (stereo not given) | > 100 |
| FC(F)(F)c1ccc2c(c1)nc(-c1ccccc1)n2CC1CCCN2CCCCC12 (stereo not given) | 26.3 |
| CC(C)(C)OC(=O)NCC(=O)NC1CC=CCC1NC(=O)CNC(=O)OC(C)(C)C (stereo not given) | > 100 |
| CC[C@@]1(O)C(=O)OCc2c1cc1n(c2=O)Cc2c-1nc1ccccc1c2/C=N/NC(=O)C[N+](C)(C)C | > 100 |
| CN(C)/C=N/S(=O)(=O)c1nn2c(C=O)c(-c3ccccc3)nc2s1 | > 38.6 |

tested on: BT-549 breast; assay: NCI tumour cell line growth inhibition, 48 h

| SMILES | TGI [µM] |
| --- | --- |
| CCCCCCCCCCCCCCCCOCC(Cl)CP(=O)(O)OP(=O)(O)OCC1OC(n2cnc3c(N)ncnc32)C(O)C1O (stereo not given) | > 100 |
| FC(F)(F)c1ccc2c(c1)nc(-c1ccccc1)n2CC1CCCN2CCCCC12 (stereo not given) | 34.9 |
| CC(C)(C)OC(=O)NCC(=O)NC1CC=CCC1NC(=O)CNC(=O)OC(C)(C)C (stereo not given) | > 100 |
| CC[C@@]1(O)C(=O)OCc2c1cc1n(c2=O)Cc2c-1nc1ccccc1c2/C=N/NC(=O)C[N+](C)(C)C | > 100 |
| CN(C)/C=N/S(=O)(=O)c1nn2c(C=O)c(-c3ccccc3)nc2s1 | > 26.4 |

tested on: SF-268 CNS; assay: NCI tumour cell line growth inhibition, 48 h

| SMILES | TGI [µM] |
| --- | --- |
| CCCCCCCCCCCCCCCCOCC(Cl)CP(=O)(O)OP(=O)(O)OCC1OC(n2cnc3c(N)ncnc32)C(O)C1O (stereo not given) | > 100 |
| FC(F)(F)c1ccc2c(c1)nc(-c1ccccc1)n2CC1CCCN2CCCCC12 (stereo not given) | 33.5 |
| CC(C)(C)OC(=O)NCC(=O)NC1CC=CCC1NC(=O)CNC(=O)OC(C)(C)C (stereo not given) | > 100 |
| CC[C@@]1(O)C(=O)OCc2c1cc1n(c2=O)Cc2c-1nc1ccccc1c2/C=N/NC(=O)C[N+](C)(C)C | > 63 |
| CN(C)/C=N/S(=O)(=O)c1nn2c(C=O)c(-c3ccccc3)nc2s1 | > 100 |

tested on: HCT-15 colon; assay: NCI tumour cell line growth inhibition, 48 h

| SMILES | TGI [µM] |
| --- | --- |
| CCCCCCCCCCCCCCCCOCC(Cl)CP(=O)(O)OP(=O)(O)OCC1OC(n2cnc3c(N)ncnc32)C(O)C1O (stereo not given) | > 100 |
| FC(F)(F)c1ccc2c(c1)nc(-c1ccccc1)n2CC1CCCN2CCCCC12 (stereo not given) | 64 |
| CC(C)(C)OC(=O)NCC(=O)NC1CC=CCC1NC(=O)CNC(=O)OC(C)(C)C (stereo not given) | > 100 |
| CC[C@@]1(O)C(=O)OCc2c1cc1n(c2=O)Cc2c-1nc1ccccc1c2/C=N/NC(=O)C[N+](C)(C)C | > 100 |
| CN(C)/C=N/S(=O)(=O)c1nn2c(C=O)c(-c3ccccc3)nc2s1 | 45.6 |

tested on: SNB-19 CNS; assay: NCI tumour cell line growth inhibition, 48 h

| SMILES | TGI [µM] |
| --- | --- |
| CCCCCCCCCCCCCCCCOCC(Cl)CP(=O)(O)OP(=O)(O)OCC1OC(n2cnc3c(N)ncnc32)C(O)C1O (stereo not given) | > 100 |
| FC(F)(F)c1ccc2c(c1)nc(-c1ccccc1)n2CC1CCCN2CCCCC12 (stereo not given) | > 100 |
| CC(C)(C)OC(=O)NCC(=O)NC1CC=CCC1NC(=O)CNC(=O)OC(C)(C)C (stereo not given) | > 100 |
| CC[C@@]1(O)C(=O)OCc2c1cc1n(c2=O)Cc2c-1nc1ccccc1c2/C=N/NC(=O)C[N+](C)(C)C | > 94.2 |
| CN(C)/C=N/S(=O)(=O)c1nn2c(C=O)c(-c3ccccc3)nc2s1 | > 100 |

tested on: HT29 colon; assay: NCI tumour cell line growth inhibition, 48 h

| SMILES | TGI [µM] |
| --- | --- |
| CCCCCCCCCCCCCCCCOCC(Cl)CP(=O)(O)OP(=O)(O)OCC1OC(n2cnc3c(N)ncnc32)C(O)C1O (stereo not given) | > 100 |
